Test results: patent US6610846B1, “Heteroaromatic glucokinase activators” (Hoffman-La Roche Inc., priority 1999, dated 2003)

Assays:
C57BL/6J mice = test: Glucokinase activator in vivo screen (blood glucose after oral dosing); details: administered orally, 50 mg/kg, C57BL/6J mice fasted two hours; decrease in blood glucose compared to vehicle over six hours (Example B)
Procedure: Glucokinase Activator In Vivo Screen Protocol
C57BL/6J mice are orally dosed via gavage with Glucokinase (GK) activator at 50 mg/kg body weight following a two hour fasting period. Blood glucose determinations are made five times during the six hour post-dose study period. Mice (n=6) are weighed and fasted for a two hour period prior to oral treatment.

O=C(Nc1nccs1)C(CC1CCCC1)c1ccc(S(=O)(=O)C(F)(F)F)cc1 (stereo not drawn) [Example 11(A), 3-Cyclopentyl-N-thiazol-2-yl-2-(4-trifluoromethanesulfonyl-phenyl)-propionamide]
glucokinase activator in vivo activity (C57BL/6J mice): excellent glucokinase activator in vivo activity | melting point: 189 to 191 °C

O=C(Nc1ccccn1)C(CC1CCCC1)c1ccc(S(=O)(=O)C(F)(F)F)cc1 (stereo not drawn) [Example 43(A), 3-Cyclopentyl-N-pyridin-2-yl-2-(4-trifluoromethanesulfonyl-phenyl)-propionamide]
glucokinase activator in vivo activity (C57BL/6J mice): excellent glucokinase activator in vivo activity | melting point: 151 to 153 °C

CS(=O)(=O)c1ccc(C(CC2CCCC2)C(=O)Nc2ccccn2)cc1[N+](=O)[O-] (stereo not drawn) [Example 44, 3-Cyclopentyl-2-(4-methanesulfonyl-3-nitrophenyl)-N-pyridin-2-yl-propionamide]
glucokinase activator in vivo activity (C57BL/6J mice): excellent glucokinase activator in vivo activity | melting point: 92 to 95 °C

O=C(Nc1ccccn1)C(CC1CCCC1)c1ccc(Cl)c([N+](=O)[O-])c1 (stereo not drawn) [Example 65, 2-(4-Chloro-3-nitro-phenyl)-3-cyclopentyl-N-pyridin-2-yl-propionamide]
glucokinase activator in vivo activity (C57BL/6J mice): excellent glucokinase activator in vivo activity | melting point: 48 to 52 °C

O=C(Nc1ccccn1)C(CC1CCCC1)c1ccc(C(F)(F)F)c(F)c1 (stereo not drawn) [Example 71, 3-Cyclopentyl-2-(3-fluoro-4-trifluoromethyl-phenyl)-N-pyridin-2-yl-propionamide]
glucokinase activator in vivo activity (C57BL/6J mice): excellent glucokinase activator in vivo activity | melting point: 40 to 44 °C

CS(=O)(=O)c1ccc(C(CC2CCCC2)C(=O)Nc2nccs2)cc1Br (stereo not drawn) [Example 72, 2-(3-Bromo-4-methanesulfonyl-phenyl)-3-cyclopentyl-N-thiazol-2-yl-propionamide]
glucokinase activator in vivo activity (C57BL/6J mice): excellent glucokinase activator in vivo activity | melting point: 106 to 107 °C

CS(=O)(=O)c1ccc(C(CC2CCCC2)C(=O)Nc2ccccn2)cc1Br (stereo not drawn) [Example 73, 2-(3-Bromo-4-methanesulfonyl-phenyl)-3-cyclopentyl-N-pyridin-2-yl-propionamide]
glucokinase activator in vivo activity (C57BL/6J mice): excellent glucokinase activator in vivo activity | melting point: 99 to 101 °C

CS(=O)(=O)c1ccc(C(CC2CCCC2)C(=O)Nc2nccs2)cc1C#N (stereo not drawn) [Example 75, 2-(3-Cyano-4-methanesulfonyl-phenyl)-3-cyclopentyl-N-thiazol-2-yl-propionamide]
glucokinase activator in vivo activity (C57BL/6J mice): excellent glucokinase activator in vivo activity | melting point: 145 to 148 °C

CS(=O)(=O)c1ccc(C(CC2CCCC2)C(=O)Nc2ccccn2)cc1C#N (stereo not drawn) [Example 76, 2-(3-Cyano-4-methanesulfonyl-phenyl)-3-cyclopentyl-N-pyridin-2-yl-propionamide]
glucokinase activator in vivo activity (C57BL/6J mice): excellent glucokinase activator in vivo activity | melting point: 87 to 90 °C

CCS(=O)(=O)c1ccc(C(CC2CCCC2)C(=O)Nc2nccs2)cc1 (stereo not drawn) [Example 77, 3-Cyclopentyl-2-(4-ethanesulfonyl-phenyl)-N-thiazol-2-yl-propionamide]
glucokinase activator in vivo activity (C57BL/6J mice): excellent glucokinase activator in vivo activity | melting point: 178 to 179 °C

CS(=O)(=O)c1ccc(C(CC2CCCC2)C(=O)Nc2nccs2)cc1C(F)(F)F (stereo not drawn) [Example 89(A), 3-Cyclopentyl-2-(4-methanesulfonyl-3-trifluoromethyl-phenyl)-N-thiazol-2-yl-propionamide]
glucokinase activator in vivo activity (C57BL/6J mice): excellent glucokinase activator in vivo activity | melting point: 95 to 100 °C

CS(=O)(=O)c1ccc([C@@H](CC2CCCC2)C(=O)Nc2ccc(Br)cn2)cc1Cl [Example 99, N-(5-Bromo-pyridin-2-yl)-2(R)-(3-chloro-4-methanesulfonyl-phenyl)-3-cyclopentyl-propionamide]
glucokinase activator in vivo activity (C57BL/6J mice): excellent glucokinase activator in vivo activity

O=C(Nc1ccc(CO)cn1)[C@H](CC1CCCC1)c1ccc(Cl)c(Cl)c1 [Example 106, 3-Cyclopentyl-2(R)-(3,4-dichloro-phenyl)-N-(5-hydroxymethyl-pyridin-2-yl)propionamide]
glucokinase activator in vivo activity (C57BL/6J mice): excellent glucokinase activator in vivo activity

O=C(Nc1nccs1)C(CC1CCCC1)c1ccc(OC(F)(F)F)cc1 (stereo not drawn) [Example 112, 3-Cyclopentyl-N-thiazol-2-yl-2-(4-trifluoromethoxy-phenyl)-propionamide]
glucokinase activator in vivo activity (C57BL/6J mice): excellent glucokinase activator in vivo activity | melting point: 168 to 170 °C

COCS(=O)(=O)c1ccc(C(CC2CCCC2)C(=O)Nc2nccs2)cc1 (stereo not drawn) [Example 125, 3-Cyclopentyl-2-(4-methoxymethanesulfonyl-phenyl)-N-thiazol-2-yl-propionamide]
glucokinase activator in vivo activity (C57BL/6J mice): excellent glucokinase activator in vivo activity | melting point: 157 to 160 °C

CS(=O)(=O)c1ccc([C@@H](CC2CCCC2)C(=O)Nc2ncc(Br)s2)cc1 [Example 133, N-(5-Bromo-thiazol-2-yl)-3-cyclopentyl-2(R)-(4-methanesulfonyl-phenyl)-propionamide]
glucokinase activator in vivo activity (C57BL/6J mice): excellent glucokinase activator in vivo activity

Cc1csc(NC(=O)[C@H](CC2CCCC2)c2ccc(S(C)(=O)=O)c(Cl)c2)n1 [Example 139, 2(R)-(3-Chloro-4-methanesulfonyl-phenyl)-3-cyclopentyl-N-(4-methyl-thiazol-2-yl)-propionamide]
glucokinase activator in vivo activity (C57BL/6J mice): excellent glucokinase activator in vivo activity

Cc1ccc(NC(=O)[C@H](CC2CCCC2)c2ccc(S(C)(=O)=O)c(Cl)c2)nc1 [Example 140, 2(R)-(3-Chloro-4-methanesulfonyl-phenyl)-3-cyclopentyl-N-(5-methyl-pyridin-2-yl)-propionamide]
glucokinase activator in vivo activity (C57BL/6J mice): excellent glucokinase activator in vivo activity

CS(=O)(=O)c1ccc(C(CC2CCCC2)C(=O)Nc2ccncn2)cc1Cl (stereo not drawn) [Example 141, 2-(3-Chloro-4-methanesulfonyl-phenyl)-3-cyclopentyl-N-pyrimidin-4-yl-propionamide]
glucokinase activator in vivo activity (C57BL/6J mice): excellent glucokinase activator in vivo activity

CS(=O)(=O)c1ccc([C@@H](CC2CCCC2)C(=O)Nc2ccncn2)cc1Cl [Example 142, 2(R)-(3-Chloro-4-methanesulfonyl-phenyl)-3-cyclopentyl-N-pyrimidin-4-yl-propionamide]
glucokinase activator in vivo activity (C57BL/6J mice): excellent glucokinase activator in vivo activity

Cc1nccc(NC(=O)C(CC2CCCC2)c2ccc(S(C)(=O)=O)c(Cl)c2)n1 (stereo not drawn) [Example 143, 2-(3-Chloro-4-methanesulfonyl-phenyl)-3-cyclopentyl-N-(2-methyl-pyrimidin-4-yl)-propionamide]
glucokinase activator in vivo activity (C57BL/6J mice): excellent glucokinase activator in vivo activity

Cc1nccc(NC(=O)[C@H](CC2CCCC2)c2ccc(S(C)(=O)=O)c(Cl)c2)n1 [Example 144, 2(R)-(3-Chloro-4-methanesulfonyl-phenyl)-3-cyclopentyl-N-(2-methyl-pyrimidin-4-yl)-propionamide]
glucokinase activator in vivo activity (C57BL/6J mice): excellent glucokinase activator in vivo activity

Cc1nccc(NC(=O)C(CC2CCCC2)c2ccc(S(C)(=O)=O)c(Br)c2)n1 (stereo not drawn) [Example 148(B)(a), 2-(3-Bromo-4-methanesulfonyl-phenyl)-3-cyclopentyl-N-(2-methyl-pyrimidin-4-yl)-propionamide]
glucokinase activator in vivo activity (C57BL/6J mice): excellent glucokinase activator in vivo activity

CS(=O)(=O)c1ccc(C(CC2CCCC2)C(=O)Nc2cnccn2)cc1Br (stereo not drawn) [Example 149, 2-(3-Bromo-4-methanesulfonyl-phenyl)-3-cyclopentyl-N-pyrazin-2-yl-propionamide]
glucokinase activator in vivo activity (C57BL/6J mice): excellent glucokinase activator in vivo activity

CS(=O)(=O)c1ccc(C(CC2CCCC2)C(=O)Nc2ccncn2)cc1C(F)(F)F (stereo not drawn) [Example 155(B)(a), 3-Cyclopentyl-2-(4-methanesulfonyl-3-trifluoromethyl-phenyl)-N-pyrimidin-4-yl-propionamide]
glucokinase activator in vivo activity (C57BL/6J mice): excellent glucokinase activator in vivo activity

CS(=O)(=O)c1ccc(C(CC2CCCC2)C(=O)Nc2cnccn2)cc1C(F)(F)F (stereo not drawn) [Example 155(B)(b), 3-Cyclopentyl-2-(4-methanesulfonyl-3-trifluoromethyl-phenyl)-N-pyrazin-2-yl-propionamide]
glucokinase activator in vivo activity (C57BL/6J mice): excellent glucokinase activator in vivo activity

Cc1nccc(NC(=O)C(CC2CCCC2)c2ccc(S(C)(=O)=O)c(C(F)(F)F)c2)n1 (stereo not drawn) [Example 155(B)(c), 3-Cyclopentyl-2-(4-methanesulfonyl-3-trifluoromethyl-phenyl)-N-(2-methyl-pyrimidin-4-yl)-propionamide]
glucokinase activator in vivo activity (C57BL/6J mice): excellent glucokinase activator in vivo activity

CS(=O)(=O)c1ccc([C@@H](CC2CCCC2)C(=O)Nc2cnccn2)cc1C(F)(F)F [Example 157(B)(a), 3-Cyclopentyl-2(R)-(4-methanesulfonyl-3-trifluoromethyl-phenyl)-N-pyrazin-2-yl-propionamide]
glucokinase activator in vivo activity (C57BL/6J mice): excellent glucokinase activator in vivo activity

Cc1nccc(NC(=O)[C@H](CC2CCCC2)c2ccc(S(C)(=O)=O)c(C(F)(F)F)c2)n1 [Example 157(B)(b), 3-Cyclopentyl-2(R)-(4-methanesulfonyl-3-trifluoromethyl-phenyl)-N-(2-methyl-pyrimidin-4-yl)-propionamide]
glucokinase activator in vivo activity (C57BL/6J mice): excellent glucokinase activator in vivo activity
